Reference: patent US20260285850A1, “SUBSTITUTED OXAZOLIDINONES AND IMIDAZOLINONES AS HERBICIDES” (FMC CORPORATION, priority 2023, published 2026)

How the values were obtained:
Test in all cases: Test B flooded paddy test, visual plant response rating 0-100
Format in all cases: in vivo
Conditions in all cases: 250 g ai/ha, Flood, applied to paddy water, evaluated after 13 days
[1] = test system: barnyardgrass (Echinochloa crusgalli)
Procedure: (§1) Plant species in the flooded paddy test selected from barnyardgrass (Echinochloa crusgalli), ducksalad (Heteranthera limosa), rice (Oryza sativa), and sedge, umbrella (small-flower umbrella sedge, Cyperus difformis) were grown to the 2-leaf stage for testing. At time of treatment, test pots were flooded to 3 cm above the soil surface, treated by application of test compounds directly to the paddy water, and then maintained at that water depth for the duration of the test. Treated plants and controls were maintained in a greenhouse for 13 days, after which time all species were compared to controls and visually evaluated. […] A dash (-) response means no test result.

rice (Oryza sativa) = test system: rice (Oryza sativa)
Procedure: as §1

[2] = test system: ducksalad (Heteranthera limosa)
Procedure: as §1

[3] = test system: sedge, umbrella (small-flower umbrella sedge, Cyperus difformis)
Procedure: as §1

| Structure (SMILES) | Plant response rating, Barnyardgrass (0 to 100 scale, 0 is no effect and 100 is complete control) [1] | Plant response rating, Rice (0 to 100 scale, 0 is no effect and 100 is complete control) (rice (Oryza sativa)) | Plant response rating, Ducksalad (0 to 100 scale, 0 is no effect and 100 is complete control) [2] | Plant response rating, Sedge, Umbrella (0 to 100 scale, 0 is no effect and 100 is complete control) [3] |
| --- | --- | --- | --- | --- |
| COC(=O)C1CC(NC(=O)C2(C(F)(F)F)CN(c3cc(F)cc(F)c3)C(=O)O2)C1 (centres unmarked) [Compound 196] | 95 | 85 | 50 | 95 |
| CC1(C(=O)NC2CC=C(C(=O)OCC3CC3)C2)CN(c2cc(Cl)cc(Cl)c2)C(=O)O1 (centres unmarked) [Compound 198] | 90 | 85 | 60 | 75 |
